{
  "source": "patent US20150183737A1",
  "about": "“COMPOSITIONS AND METHODS FOR SUBSTRATE-SELECTIVE INHIBITION OF ENDOCANNABINOID OXYGENATION” (Vanderbilt University, priority 2012, published 2015)",
  "key": {"Human DAGLα": {"biological_target": "T1, Human DAGLα (Homo sapiens, UniProt Q9Y4D2)", "T1 construct": "made in house; host or cells: HEK293T cells (transfected, pcDNA3.1D); membranes used", "T1 sequence (Q9Y4D2 1-1042)": "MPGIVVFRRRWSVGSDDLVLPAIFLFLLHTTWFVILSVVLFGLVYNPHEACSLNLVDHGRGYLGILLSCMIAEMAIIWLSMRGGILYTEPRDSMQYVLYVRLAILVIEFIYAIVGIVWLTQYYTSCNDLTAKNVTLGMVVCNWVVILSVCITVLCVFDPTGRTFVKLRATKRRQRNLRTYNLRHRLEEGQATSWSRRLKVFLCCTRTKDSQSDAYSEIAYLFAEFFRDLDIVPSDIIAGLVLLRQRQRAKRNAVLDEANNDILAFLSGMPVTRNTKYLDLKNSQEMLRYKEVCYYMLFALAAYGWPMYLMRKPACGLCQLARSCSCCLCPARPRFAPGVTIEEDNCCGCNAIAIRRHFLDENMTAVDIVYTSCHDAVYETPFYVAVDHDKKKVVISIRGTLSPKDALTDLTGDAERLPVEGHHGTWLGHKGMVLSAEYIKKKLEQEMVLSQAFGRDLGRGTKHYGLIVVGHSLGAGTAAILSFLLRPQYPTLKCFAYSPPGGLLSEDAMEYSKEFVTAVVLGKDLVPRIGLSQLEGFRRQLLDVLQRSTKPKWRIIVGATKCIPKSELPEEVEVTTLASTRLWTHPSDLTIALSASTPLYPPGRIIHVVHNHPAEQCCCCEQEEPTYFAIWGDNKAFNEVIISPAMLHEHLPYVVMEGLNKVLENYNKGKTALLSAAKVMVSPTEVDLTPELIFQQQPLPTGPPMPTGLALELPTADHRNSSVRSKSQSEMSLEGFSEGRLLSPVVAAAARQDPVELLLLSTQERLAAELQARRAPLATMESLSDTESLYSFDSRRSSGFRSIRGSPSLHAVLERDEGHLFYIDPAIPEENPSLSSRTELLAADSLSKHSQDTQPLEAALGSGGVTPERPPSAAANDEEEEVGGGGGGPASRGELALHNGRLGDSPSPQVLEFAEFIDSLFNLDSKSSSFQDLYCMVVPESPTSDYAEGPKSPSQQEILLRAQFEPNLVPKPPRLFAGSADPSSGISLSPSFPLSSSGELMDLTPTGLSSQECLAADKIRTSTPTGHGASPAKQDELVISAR", "experiment": "DAGLα activity (Compound A)", "assay_type": "biochemical", "details": "in vitro"}, "ICR mice [1]": {"system": "ICR mice", "experiment": "Light-dark box", "assay_type": "in vivo"}, "human MGL-His (MAGL)": {"biological_target": "T2, human MGL-His (MAGL) (Homo sapiens, UniProt Q99685)", "T2 construct": "His; made in house; host or cells: E. coli BL21(DE3) pLysS", "T2 sequence (Q99685 1-303)": "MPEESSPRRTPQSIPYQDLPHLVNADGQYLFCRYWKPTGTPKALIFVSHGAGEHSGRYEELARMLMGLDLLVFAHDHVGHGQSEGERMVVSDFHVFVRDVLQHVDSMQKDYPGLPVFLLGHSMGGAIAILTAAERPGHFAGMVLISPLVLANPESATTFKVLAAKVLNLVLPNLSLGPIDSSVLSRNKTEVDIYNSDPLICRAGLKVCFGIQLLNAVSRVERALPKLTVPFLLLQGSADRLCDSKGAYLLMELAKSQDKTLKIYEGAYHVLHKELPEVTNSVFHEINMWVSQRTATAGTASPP", "experiment": "MAGL activity (Compound A)", "assay_type": "biochemical", "details": "in vitro"}, "ICR mice [2]": {"system": "ICR mice", "experiment": "Elevated plus-maze (EPM)", "assay_type": "in vivo", "details": "10 mg/kg"}},
  "note": "Entries after “also recorded” stand apart in the source; their conditions may differ.",
  "data": [
    {"smiles": "COc1ccc2c(c1)c(CC(=O)N1CCOCC1)c(C)n2C(=O)c1ccc(Cl)cc1", "note": "[Compound A, 2-[1-(4-Chloro-benzoyl)-5-methoxy-2-methyl-1H-indol-3-yl]-1-morpholin-4-yl-ethanone]", "values": [
      {"measurement": "Inhibition of DAGLα", "setting": "Human DAGLα", "value": "did not inhibit"},
      {"measurement": "Light-zone time", "setting": "ICR mice [1]; 10 mg/kg", "value": "significantly increased"},
      {"measurement": "Number of light-zone entries", "setting": "ICR mice [1]; 10 mg/kg", "value": "significantly increased"},
      {"measurement": "Overall locomotor activity in the light-dark box", "setting": "ICR mice [1]; 10 mg/kg", "value": "without significantly affecting"},
      {"measurement": "Anxiolytic effects in the light-dark box with Rimonabant", "setting": "ICR mice [1]; Rimonabant 3 mg/kg", "value": "blocked"},
      {"measurement": "Inhibition of MAGL", "setting": "human MGL-His (MAGL)", "value": "did not inhibit"},
      {"measurement": "Open arm latency", "setting": "ICR mice [2]", "value": "significantly reduced; also recorded: decreased"},
      {"measurement": "Other EPM parameters (open arm time, total distance traveled)", "setting": "ICR mice [2]", "value": "did not affect; also recorded: did not increase"}
    ]}
  ]
}
